Reference: patent publication US11702404B2, “GLP-1R modulating compounds” (priority 2019, dated 2023)

Assays:
[1] = Microsomal stability, human liver microsomes (predicted hepatic clearance); conditions: predicted from in vitro microsomal stability data
GLP-1R = GLP-1R (Homo sapiens, UniProt P43220); assay: GLP-1R activation: cAMP increase in CHO cells stably expressing GLP-1R; type: cell-based; conditions: cAMP increase, CHO cells stably expressing GLP-1R, 10 point dose response, 30 minutes incubation; read-out: EC50
Chain of GLP-1R (P43220 24-463): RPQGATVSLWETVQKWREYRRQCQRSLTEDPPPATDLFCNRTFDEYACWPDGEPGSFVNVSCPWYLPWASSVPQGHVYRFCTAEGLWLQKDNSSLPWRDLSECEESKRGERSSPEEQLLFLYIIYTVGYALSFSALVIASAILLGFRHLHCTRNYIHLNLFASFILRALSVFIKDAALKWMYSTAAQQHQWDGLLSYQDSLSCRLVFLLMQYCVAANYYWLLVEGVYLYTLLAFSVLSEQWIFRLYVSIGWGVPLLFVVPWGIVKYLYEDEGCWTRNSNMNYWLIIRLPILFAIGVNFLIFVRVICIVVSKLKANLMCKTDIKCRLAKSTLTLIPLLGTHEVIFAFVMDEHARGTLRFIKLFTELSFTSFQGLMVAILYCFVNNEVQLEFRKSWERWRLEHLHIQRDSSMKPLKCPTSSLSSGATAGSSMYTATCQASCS

| Compound | Predicted Hepatic Clearance (Pred. Cl.) [1] | EC50 (GLP-1R) |
| --- | --- | --- |
| COCCn1c(Cc2cc(F)c(-c3cccc(OCc4ccc(C)cn4)n3)cc2F)nc2ccc(C(=O)O)cc21 [Example 803] | 13.3 mL/min/kg | 5.95 nM |
| COCCn1c(Cc2cc(F)c(-c3ccc(F)c(OCc4ccc(C#N)cc4F)n3)cc2C)nc2ccc(C(=O)O)cc21 [Example 673] | 4.5 mL/min/kg | 3.54 nM |
| N#Cc1ccc(COc2nc(-c3ccc(Cc4nc5c(F)cc(C(=O)O)cc5n4C[C@@H]4CCO4)c(F)c3)ccc2F)c(F)c1 [Example 132, (S)-2-(4-(6-((4-cyano-2-fluorobenzyl)oxy)-5-fluoropyridin-2-yl)-2-fluorobenzyl)-4-fluoro-1-(oxetan-2-ylmethyl)-1H-benzo[d]imidazole-6-carboxylic acid] | 3.58 mL/min/kg | 0.05 nM |
| N#Cc1ccc(COc2ccc(F)c(-c3cc(F)c(Cc4nc5c(F)cc(C(=O)O)cc5n4CC4(CF)CC4)cc3F)n2)c(F)c1 [Example 760] | 6.5 mL/min/kg | 0.26 nM |
| N#Cc1ccc(COc2cccc(-c3ccc(Cc4nc5ccc(C(=O)O)cc5n4Cc4cn[nH]c4)c(F)c3)n2)c(F)c1 [Example 491, 1-((1H-pyrazol-4-yl)methyl)-2-(4-(6-((4-cyano-2-fluorobenzyl)oxy)pyridin-2-yl)-2-fluorobenzyl)-1H-benzo[d]imidazole-6-carboxylic acid] | 12.7 mL/min/kg | 19.4 nM |
| COCCn1c(Cc2ccc(-c3cccc(OCc4ccc(C#N)cc4OC(F)F)n3)cc2F)nc2ccc(C(=O)O)cc21 [Example 234, 2-(4-(6-((4-cyano-2-(difluoromethoxy)benzyl)oxy)pyridin-2-yl)-2-fluorobenzyl)-1-(2-methoxyethyl)-1H-benzo[d]imidazole-6-carboxylic acid] | <1.83 mL/min/kg | 6.95 nM |
| CC(C)(Cn1c(Cc2ccc(-c3cccc(OCc4ccc(C#N)cc4F)n3)cc2F)nc2ccc(C(=O)NS(=O)(=O)C3CC3)cc21)C(F)F [Example 52, 2-(4-(6-((4-cyano-2-fluorobenzyl)oxy)pyridin-2-yl)-2-fluorobenzyl)-N-(cyclopropylsulfonyl)-1-(3,3-difluoro-2,2-dimethylpropyl)-1H-benzo[d]imidazole-6-carboxamide] | <1.83 mL/min/kg | 56 nM |
| N#Cc1ccc(COc2cccc(-c3ccc(Cc4nc5ccc(C(=O)O)cc5n4Cc4cncn4C4CC4)c(F)c3)n2)c(F)c1 [Example 7, 2-(4-(6-((4-cyano-2-fluorobenzyl)oxy)pyridin-2-yl)-2-fluorobenzyl)-1-((1-cyclopropyl-1H-imidazol-5-yl)methyl)-1H-benzo[d]imidazole-6-carboxylic acid] | 5.17 mL/min/kg | 6.34 nM |
| COCCn1c(Cc2ccc(-c3cccc(OCc4cccc(OCC(F)F)c4)n3)cc2F)nc2ccc(C(=O)O)cc21 [Example 139, 2-(4-(6-((3-(2,2-difluoroethoxy)benzyl)oxy)pyridin-2-yl)-2-fluorobenzyl)-1-(2-methoxyethyl)-1H-benzo[d]imidazole-6-carboxylic acid] | 7.17 mL/min/kg | 26.4 nM |
| COCCn1c(Cc2cc(F)c(-c3cccc(OCc4ccc(C#N)cc4COC)n3)cc2F)nc2ccc(C(=O)O)cc21 [Example 844, 2-(4-(6-((4-cyano-2-(methoxymethyl)benzyl)oxy)pyridin-2-yl)-2,5-difluorobenzyl)-1-(2-methoxyethyl)-1H-benzo[d]imidazole-6-carboxylic acid] | 2.5 mL/min/kg | 13 nM |
| N#Cc1ccc(COc2cccc(-c3cc(F)c(Cc4nc5ccc(C(=O)O)cc5n4CC45COCC4C5)cc3F)n2)c(F)c1 (stereo not shown) [Example 704] | 1.83 mL/min/kg | 0.98 nM |
| COCCn1c(Cc2ccc(-c3cccc(OCc4ccc(C#N)cc4F)n3)cc2-c2ccccc2)nc2ccc(C(=O)O)cc21 [Example 184, 2-((5-(6-((4-cyano-2-fluorobenzyl)oxy)pyridin-2-yl)-[1,1′-biphenyl]-2-yl)methyl)-1-(2-methoxyethyl)-1H-benzo[d]imidazole-6-carboxylic acid] | <1.83 mL/min/kg | 369 nM |
| COCCn1c(Cc2ccc(-c3cccc(OCc4csc(C#N)c4)n3)cc2F)nc2ccc(C(=O)O)cc21 [Example 235, 2-(4-(6-((5-cyanothiophen-3-yl)methoxy)pyridin-2-yl)-2-fluorobenzyl)-1-(2-methoxyethyl)-1H-benzo[d]imidazole-6-carboxylic acid] | 8.42 mL/min/kg | 317 nM |
| N#Cc1cc(F)c(COc2cccc(-c3cc(F)c(Cc4nc5ccc(C(=O)O)cc5n4C[C@@H]4CCO4)cc3F)n2)cc1F [Example 798] | 5.33 mL/min/kg | 0.12 nM |
| N#CCC1(Cn2c(Cc3cc(F)c(-c4ccnc(OCc5ccc(C#N)cc5F)n4)cc3F)nc3ccc(C(=O)O)nc32)CC1 [Example 400, 2-(4-(2-((4-cyano-2-fluorobenzyl)oxy)pyrimidin-4-yl)-2,5-difluorobenzyl)-3-((1-(cyanomethyl)cyclopropyl)methyl)-3H-imidazo[4,5-b]pyridine-5-carboxylic acid] | <1.83 mL/min/kg | 0.47 nM |
| COCCn1c(Cc2cnc(-c3cccc(OCc4ccc(C#N)cc4F)n3)nc2)nc2ccc(C(=O)O)cc21 [Example 44, 2-((2-(6-((4-cyano-2-fluorobenzyl)oxy)pyridin-2-yl)pyrimidin-5-yl)methyl)-1-(2-methoxyethyl)-1H-benzo[d]imidazole-6-carboxylic acid] | 3 mL/min/kg | 212 nM |
| COCCn1c(Cc2ccc(-c3cccnc3OCc3ccc(C#N)cc3F)cc2F)nc2ccc(C(=O)O)cc21 [Example 180, 2-(4-(2-((4-cyano-2-fluorobenzyl)oxy)pyridin-3-yl)-2-fluorobenzyl)-1-(2-methoxyethyl)-1H-benzo[d]imidazole-carboxylic acid] | 6.33 mL/min/kg | 257 nM |
| CC1(Cn2c(Cc3ccc(-c4cccc(OCc5ccc(C#N)cc5F)n4)cc3F)nc3ccc(C(=O)O)nc32)CC1 [Example 18, 2-(4-(6-((4-cyano-2-fluorobenzyl)oxy)pyridin-2-yl)-2-fluorobenzyl)-3-((1-methylcyclopropyl)methyl)-3H-imidazo[4,5-b]pyridine-5-carboxylic acid] | 2.5 mL/min/kg | 3.6 nM |
| N#Cc1ccc(COc2cccc(-c3cc(F)c(Cc4nc5ccc(C(=O)O)cc5n4Cc4cnccn4)cc3F)n2)c(F)c1 [Example 310, 2-(4-(6-((4-cyano-2-fluorobenzyl)oxy)pyridin-2-yl)-2,5-difluorobenzyl)-1-(pyrazin-2-ylmethyl)-1H-benzo[d]imidazole-6-carboxylic acid] | 6.33 mL/min/kg | 16.3 nM |
| N#Cc1ccc(COc2cccc(-c3cnc(Cc4nc5ccc(C(=O)O)cc5n4C[C@@H]4CCO4)c(F)c3)n2)c(F)c1 [Example 682] | 2.5 mL/min/kg | 0.59 nM |
| CO[C@H]1C[C@@H](Cn2c(Cc3cc(F)c(-c4cccc(OCc5ccc(C#N)cc5F)n4)cc3F)nc3ccc(C(=O)O)cc32)C1 [Example 744] | 1.83 mL/min/kg | 10.6 nM |
| COCCn1c(Cc2cc(F)c(-c3cccc(OCc4ccc(C5=CCNCC5)cc4F)n3)cc2F)nc2ccc(C(=O)O)cc21 [Example 901, 2-(2,5-difluoro-4-(6-((2-fluoro-4-(1,2,3,6-tetrahydropyridin-4-yl)benzyl)oxy)pyridin-2-yl)benzyl)-1-(2-methoxyethyl)-1H-benzo[d]imidazole-6-carboxylic acid] | 4.5 mL/min/kg | 160 nM |
| COCCn1c(Cc2ccc(-c3cccc(OCc4cccc(C(C)(C)C)c4)n3)cc2F)nc2ccc(C(=O)O)cc21 [Example 155, 2-(4-(6-((3-(tert-butyl)benzyl)oxy)pyridin-2-yl)-2-fluorobenzyl)-1-(2-methoxyethyl)-1H-benzo[d]imidazole-6-carboxylic acid] | 5.5 mL/min/kg | 73.2 nM |
| N#Cc1ccc(COc2nccc(-c3cc(F)c(Cc4nc5ccc(C(=O)O)cc5n4C[C@@H]4CCO4)c(F)c3)n2)c(F)c1 [Example 121, (S)-2-(4-(2-((4-cyano-2-fluorobenzyl)oxy)pyrimidin-4-yl)-2,6-difluorobenzyl)-1-(oxetan-2-ylmethyl)-1H-benzo[d]imidazole-6-carboxylic acid] | 2.67 mL/min/kg | 0.66 nM |
| N#Cc1ccc(COc2cccc(-c3cc(F)c(Cc4nc5ccc(C(=O)O)cc5n4C[C@@H]4CCO4)cc3F)n2)c(F)c1 (single isomer, unassigned) [Example 757] | 4.33 mL/min/kg | 0.03 nM |
| N#Cc1ccc(COc2nccc(-c3ccc(Cc4nc5ccc(C(=O)O)nc5n4CC4(CF)CC4)cc3F)n2)c(F)c1 [Example 302, 2-(4-(2-((4-cyano-2-fluorobenzyl)oxy)pyrimidin-4-yl)-3-fluorobenzyl)-3-((1-(fluoromethyl)cyclopropyl)methyl)-3H-imidazo[4,5-b]pyridine-5-carboxylic acid] | 2.67 mL/min/kg | 1.21 nM |
| COCCn1c(Cc2ccc(-c3cccc(OCc4cc(F)c(C#N)cc4OC)n3)cc2F)nc2ccc(C(=O)O)cc21 [Example 251, 2-(4-(6-((4-cyano-5-fluoro-2-methoxybenzyl)oxy)pyridin-2-yl)-2-fluorobenzyl)-1-(2-methoxyethyl)-1H-benzo[d]imidazole-6-carboxylic acid] | <1.83 mL/min/kg | 3.13 nM |
| Cc1cc(-c2ccc(F)c(OCc3ccc(C#N)cc3F)n2)ccc1Cc1nc2ccc(C(=O)O)cc2n1C[C@@H]1CCO1 [Example 686] | 4 mL/min/kg | 0.55 nM |
| N#Cc1ccc(COc2cccc(-c3cc(F)c(Cc4nc5ccc(C(=O)O)cc5n4CC4(COC(F)F)CC4)cc3F)n2)c(F)c1 [Example 730] | 1.83 mL/min/kg | 0.98 nM |
